According to US7820179B2, “Pegylated PTH as PTH receptor modulators and uses thereof” (Eli Lilly and Company, priority 2006, dated 2010):
No end group written: not given here.

Experiments:
[1] = system: aged osteopenic ovariectomized rats; assay: Weekly PTH(1-34) in aged osteopenic ovariectomized rats; type: in vivo, rat
Description: Six-month old ovariectomized Sprague-Dawley rats are maintained on a 12 hr light/dark cycle at 22° C. with ad lib access to food (TD 89222 with 0.5% Ca and 0.4% P, Teklad, Madison, Wis.) and water. Ovariectomized rats are allowed to lose bone for 1 month, before treatment with rhPTH (1-34) for the following 3 months. The aged osteopenic ovariectomized rats are injected subcutaneously, weekly, with 0, 10 or 30 μg/kg human PTH(1-34) for 12 weeks. Sham and ovx controls are injected with the vehicle only. Lumbar vertebra are excised at necropsy and analyzed by micro-CT (Stratec), and then prepared for biomechanical testing. Strength in Newtons, (N), is evaluated by loading vertebra specimens to failure. Significance with respect to ovx vehicle controls is indicated by * in Table 7 below (Fishers PLSD, P<0.05).

[2] = 5 μg/kg/d (1 nmol/kg/d); cited from earlier work
[3] = system: aged osteopenic ovariectomized rats; conditions: 5 μg/kg/d, aged osteopenic ovariectomized rat model, literature; cited from earlier work
[4] = system: aged osteopenic ovariectomized rats; assay: Direct comparison of 2 kD and 5 kD pegylated SEQ ID NO: 1 in aged osteopenic ovariectomized rats; type: in vivo, rat; conditions: for Serum Calcium: 24 hours after dosing
Text: A compound of the invention with SEQ ID NO: 1, wherein the mPEG to which it is conjugated is a 2 kD mPEG, is directly compared to a compound of the invention with SEQ ID NO: 1, wherein the mPEG to which it is conjugated is a 5 kD mPEG. Aged osteopenic ovariectomized rats are permitted to lose bone for one month before dosing (nmol/kg as in Table 5 and 6) every 6 days with vehicle alone, or the 2 kD pegylated SEQ ID NO: 1 compound or the 5 kD pegylated SEQ ID NO: 1 compound for 8 weeks.

[5] = system: aged osteopenic ovariectomized rats; assay: Aged osteopenic ovariectomized rats: vertebral BMD/BMC, bone biomechanical strength, serum calcium; type: in vivo, rat
Description: Hypercalcemia is defined herein as the upper 97.5 percentile serum calcium value of normal ovariectomized vehicle controls for the animal type used, using clinical chemistry data and sera collected from cardiac puncture (International Federation of Clinical Chemistry, H E Solberg in Tietz Fundamentals of Clinical Chemistry, 5th edition, Burtis C A and Ashwood E R, editors, 2001, pp 251-261). The value reflecting the 97.5 percentile is 11.2 mg of calcium per dL of serum from ovx vehicle control. The “Hypercalcemic Dose”, i.e., the dose at which hypercalcemia is observed 24 hours after injection of the test compound using clinical chemistry data and sera collected from cardiac puncture, is determined by interpolation, using regression analysis to fit the calcemic dose response observed 24 hours after administering the compound to ovariectomized rats.
Female Sprague-Dawley rats about 6 months of age are ovariectomized, except for sham controls, and maintained on a 12 hour light/dark cycle at 22° C. with ad lib access to food (TD 89222 with 0.5% Ca and 0.4% P, Teklad, Madison, Wis.) and water. Ovariectomized (Ovx) rats are allowed to lose bone for one month before treatment with compounds of the invention for two additional months. The compound to be tested is subcutaneously administered at various doses (as indicated in Table 3 below) in a vehicle of 20 mM NaH2PO4 in 0.9% NaCl, 3 mg/ml mannitol, pH 5, every 6 or 7 days for two months. Sham and Ovx controls are treated with the vehicle only (“sham vehicle control” and “ovx vehicle control”). Sera are then collected by cardiac puncture under isoflurane anesthesia at necropsy, and analyzed using a clinical chemistry analyzer. Lumbar vertebra L4-6 and left femora are removed, cleaned of soft-tissue and stored in 50% ethanol/saline at 4° C. At room temperature, L-5 in 50% EtOH/saline are wrapped in Parafilm and centered with respect to the QCT gantry (Research M, Stratec). A coronal scout scan of the L-5 vertebra is generated first in 2D before 3D analysis. QCT parameters are measured including BMD (mg/cc), BMC (mg), and cross-sectional area (mm^2). Lumbar vertebra L-5, femoral midshaft, and proximal femur are then prepared for biomechanical testing. Strength (N) is evaluated by loading the specimens to failure as described previously (Sato, et al., Endocrinology, […]:4330-4337, 1997).
Pegylated compounds of the invention are evaluated in this assay relative to a positive control of 3-5 μg/kg/d PTH(1-38). PTH(1-34) and PTH(1-38) are found to be indistinguishable in terms of skeletal efficacy or calcemic effects in osteopenic ovariectomized rats. It has been previously shown that rats administered 5 μg/kg/d (1 nmol/kg/d) PTH(1-34) have a systemic exposure that is about 3 times that of PTH(1-34) (i.e., FORTEO™) in humans (Tashjian and Chabner, J. Bone Miner Res, 17:1151-1161, 2002; Tashjian and Gagel, J. Bone Miner Res, 21:354-365, 2006). […] This is confirmed for PTH(1-38) in this model with a dosing of 3-5 μg/kg/d.

[6] = system: young adult osteopenic ovariectomized rats; assay: Young adult osteopenic ovariectomized rats: femur BMD (QCT) and serum calcium; type: in vivo, rat; conditions: young adult Ovx rats
Description: Female Sprague-Dawley rats about 3 months of age are ovariectomized, except for sham controls, and maintained on a 12 hour light/dark cycle at 22° C. with ad lib access to food (TD 89222 with 0.5% Ca and 0.4% P, Teklad, Madison, Wis.) and water. Ovariectomized (Ovx) rats are allowed to lose bone for 25 days, and then weighed and randomized into treatment groups. Treatment is by subcutaneous injection of a compound of the invention at various doses (as indicated in Table 2 below) for 1 month in a vehicle of 20 mM NaH2PO4 in 0.9% NaCl, 3 mg/ml mannitol, pH 5. The rats are injected with the compounds every third or fourth day to approximate once weekly administration to a human. Sham and Ovx controls are treated with the vehicle only (“sham vehicle control” and “ovx vehicle control”). Sera are collected by cardiac puncture approximately 24 hours after final injection under isoflurane anesthesia at necropsy (approximately 24 hours after the final injection), and analyzed using a clinical chemistry analyzer (Hitachi 917, Tokyo, Japan).
At necropsy, left femora are removed, cleaned of soft-tissue and stored in 50% ethanol/saline at 4° C. At room temperature, femora in 50% EtOH/saline are wrapped in Parafilm and centered with respect to the gantry for quantitative computed tomography (QCT) (Research M, Stratec). […]

[7] = up to 30 ug/kg (7 nmol/kg), 12 weeks of treatment
[8] = 11 nmol/kg every 6 days for 8 weeks
[9] = 32 nmol/kg every 6 days for 8 weeks
[10] = 108 nmol/kg every 6 days for 8 weeks

Compound: CC[C@H](C)[C@H](NC(=O)[C@H](CCC(=O)O)NC(=O)[C@H](CO)NC(=O)[C@@H](NC(=O)[C@@H](N)CO)C(C)C)C(=O)N[C@@H](CCC(N)=O)C(=O)N[C@@H](CC(C)C)C(=O)N[C@@H](CCSC)C(=O)N[C@@H](Cc1cnc[nH]1)C(=O)N[C@@H](CC(N)=O)C(=O)N[C@@H](CC(C)C)C(=O)NCC(=O)N[C@@H](CCCCN)C(=O)N[C@@H](Cc1cnc[nH]1)C(=O)N[C@@H](CC(C)C)C(=O)N[C@@H](CC(N)=O)C(=O)N[C@@H](CO)C(=O)N[C@@H](CCSC)C(=O)N[C@@H](CCC(=O)O)C(=O)N[C@@H](CCCN=C(N)N)C(=O)N[C@H](C(=O)N[C@@H](CCC(=O)O)C(=O)N[C@@H](Cc1c[nH]c2ccccc12)C(=O)N[C@@H](CC(C)C)C(=O)N[C@@H](CCCN=C(N)N)C(=O)N[C@@H](CCCCN)C(=O)N[C@@H](CCCCN)C(=O)N[C@@H](CC(C)C)C(=O)N[C@@H](CCC(N)=O)C(=O)N[C@@H](CC(=O)O)C(=O)N[C@H](C(=O)N[C@@H](Cc1cnc[nH]1)C(=O)N[C@@H](CC(N)=O)C(=O)N[C@@H](Cc1ccccc1)C(=O)O)C(C)C)C(C)C [PTH(1-34)]
- Vertebral strength: Average Load to Failure ([1]; 10 ug/kg s.c. weekly for 12 weeks): 222 N
- Vertebral BMD: Average BMD ([1]; 10 μg/kg s.c. weekly for 12 weeks): 534 mg/mL
- Vertebral strength: Average Load to Failure ([1]; 30 ug/kg s.c. weekly for 12 weeks): 243 N
- Vertebral BMD: Average BMD ([1]; 30 μg/kg s.c. weekly for 12 weeks): 529 mg/mL
- Serum Calcium ([1]; approximately 24 hours after the last dose): normal
- Effect on vertebral BMD relative to Ovx vehicle controls [1, 7]: no significant effect
- Effect on vertebral biomechanical strength relative to Ovx vehicle controls [1, 7]: no significant effect
- Systemic exposure in rats relative to PTH(1-34) (FORTEO) in humans [2]: about 3 times
- Restoration of vertebral BMD from Ovx to sham vehicle control levels [3]: restore vertebral BMD from Ovx to sham vehicle control levels

Compound: SEQ ID NO: 1 with 5 kD mPEG (SVSEIQLMHNLGRHLASMERVEWLRKLLQDVHNF-NH2; not fully specified (residue 26))
- Vertebral BMD [4, 8]: 567 mg/cc
- Serum Calcium [4, 8]: 10.86 mg/dL
- Vertebral BMD [4, 9]: 589 mg/cc
- Serum Calcium [4, 9]: 10.79 mg/dL
- Vertebral BMD [4, 10]: 612 mg/cc
- Serum Calcium [4, 10]: 11.03 mg/dL
- Hypercalcemic Dose/Femoral Neck Strength Dose ([5]; derived from Table 3): >9.7
- Hypercalcemic Dose/Midshaft Strength Dose ([5]; derived from Table 3): >1.0
- Hypercalcemic Dose/Vertebral BMC Dose ([5]; derived from Table 3): >3.34
- Hypercalcemic Dose/Vertebral BMD Dose ([5]; derived from Table 3): >1.0
- Hypercalcemic Dose/Vertebral Strength Dose ([5]; derived from Table 3): >1.0
- Vertebral BMC Dose ([5]; dose at which Sham level of vertebral BMC is achieved): 32 nmol/kg
- Vertebral BMD Dose ([5]; dose at which Sham level of vertebral BMD is achieved, s.c. every 6 or 7 days for two months): >108 nmol/kg
- Fem Neck Strength Dose ([5]; dose at which femoral neck strength comparable to sham vehicle control and positive control is achieved): 11 nmol/kg
- Midshaft Strength Dose ([5]; dose at which midshaft strength comparable to sham vehicle control and positive control is achieved): 108 nmol/kg
- Vertebral Strength Dose ([5]; dose at which vertebral strength comparable to sham and positive control is achieved): 108 nmol/kg
- Hypercalcemia Dose ([5]; sera 24 hours after administration, > means highest dose tested, not reached): >107 nmol/kg
- Hypercalcemic Dose/BMD Dose [6]: >8.8
